Data taken from paper PMC9026348, “Investigation of Direct and Retro Chromone-2-Carboxamides Based Analogs of Pseudomonas aeruginosa Quorum Sensing Signal as New Anti-Biofilm Agents” (Pharmaceuticals, 2022).

How the values were obtained:
[1] = tested on: P. aeruginosa PAO1 biofilms; experiment: Anti-biofilm assay, CFU count of adherent cells; format: cell-based, Pseudomonas aeruginosa PAO1; settings: PAO1, 48 h, relative to untreated control, mean ± SD of 3 independent experiments; for inhibition at 50 µM: Pseudomonas aeruginosa
Description: The effect of all compounds was evaluated on PAO1 biofilms, grown in 24-well microplates. The antibiofilm assay used in this study is based on a low nutritive culture medium, a rather weak inoculum (10^2 CFU/mL), and a regular renewal of the culture medium (at 2, 4, 6, 20, and 24 h), in order to promote the growth of adhered cells as biofilm, instead of the growth and/or sedimentation of planktonic cells. Since the QS systems are involved in early steps of biofilm formation, compounds were added at t0. After incubation, viable cells were quantified by CFU plate counts.
The rather low concentration of 50 µM used was set up according to detected concentrations of QS molecules in CF patients’ lungs. […] For all compounds, MICs/MBCs were higher than 500 µM. To be considered active, a threshold of 50% inhibition, relative to the untreated control, was applied.
Pseudomonas aeruginosa PAO1 was obtained from the Institute Pasteur Collection (CIP 104116, Paris, France), frozen and kept at -80 °C in a 20% (v/v) glycerol stock solution. Before each experiment, two successive subcultures were prepared on trypticase soy agar and incubated for 24 h under aerobic conditions at 37 °C. Before each experiment, bacterial suspensions of 10^8 CFU/mL were prepared by adjusting OD at 640 nm to 0.150.
The bacterial enumerations were done on trypticase soy agar. The minimum biofilm broth used for biofilm formation (MBB) was prepared in sterile distilled water (SDW) and was composed of MgSO4·7H2O (0.02 g/L), FeSO4·7H2O (0.5 mg/L), Na2HPO4 (1.25 g/L), KH2PO4 (0.5 g/L), (NH4)2SO4 (0.1 g/L), and glucose (0.05 g/L) from Merck-Sigma (France).
The enumeration of adhered bacteria was carried-out according to Campanac et al. with some modifications. P. aeruginosa biofilms were grown in a 24-wells microtiter plate for 48 h. The culture medium was composed of BBM 2X (1.0 mL) and 1.0 mL of a 10^−4 M solution of tested compound dissolved in SDW (final concentration 50 µM). After inoculation with 100 µL of a 10^2 CFU/mL bacterial suspension of P. aeruginosa PAO1 (final inoculum 10 CFU/well), the microtiter plate was incubated à 37 °C. After 2 h, 4 h, 6 h, 20 h and 24 h of incubation, each well was emptied, rinsed twice with SDW, and the culture medium was renewed. After 48 h of culture, the biofilm was rinsed twice with 2.0 mL SDW. The bottom of each well was scraped with a sterile spatula and suspended in 1.0 mL of SDW. The content of each well was diluted by serial dilutions in test tubes. After inclusion of 0.9 mL of each dilution in trypticase soy agar, Petri dishes were incubated for 48 h at 37 °C. The number of colony forming units (CFUs) was counted and the inhibition percentage calculated using the following formula: Inhibition(%)=Adhered cellsControl(CFU/mL)−Adhered cellsSample(CFU/mL) /Adhered cellsControl×100

Structure (SMILES) | melting point | inhibition at 50 µM [1] | Biofilm Inhibition (%) ([1]; 50 µM)
O=C(Nc1ccc(Cl)cc1)c1cc(=O)c2ccccc2o1 [3f, N-(4-Chlorophenyl)-4-oxo-4H-chromene-2-carboxamide] | 265 °C | 25.9 ± 4.3% | –
CCCNC(=O)c1cc(=O)c2ccccc2o1 [3w, 4-Oxo-N-propyl-4H-chromene-2-carboxamide] | 166 °C | < 10% | –
CCc1cccc(NC(=O)c2cc(=O)c3ccccc3o2)c1 [3′a, N-(3-Ethylphenyl)-4-oxo-4H-chromene-2-carboxamide] | 168 °C | 70.5 ± 5.6% | –
O=C(Nc1ccc(F)cc1)c1cc(=O)c2ccccc2o1 [3e, N-(4-Fluorophenyl)-4-oxo-4H-chromene-2-carboxamide] | 211 °C | 73.3 ± 11% | –
O=C(Nc1ccc(F)cc1Cl)c1cc(=O)c2ccccc2o1 [3k, N-(2-Chloro-4-fluorophenyl)-4-oxo-4H-chromene-2-carboxamide] | 229 °C | 44.7 ± 9.4% | –
O=C(Nc1ccc(N2CCOCC2)cc1)c1cc(=O)c2ccccc2o1 [3u, N-(4-Morpholinophenyl)-4-oxo-4H-chromene-2-carboxamide] | 288 °C | 51.2 ± 11.7% | –
O=C(Nc1ncccn1)c1cc(=O)c2ccccc2o1 [3v, 4-Oxo-N-(pyrimidin-2-yl)-4H-chromene-2-carboxamide] | 189 °C | 46 ± 7.3% | –
O=C(Nc1ccc([N+](=O)[O-])cc1)c1cc(=O)c2ccccc2o1 [3m, N-(4-Nitrophenyl)-4-oxo-4H-chromene-2-carboxamide] | 307 °C | 58.7 ± 2.5% | –
O=C(Nc1ccc([N+](=O)[O-])cc1[N+](=O)[O-])c1cc(=O)c2ccccc2o1 [3n, N-(2,4-Dinitrophenyl)-4-oxo-4H-chromene-2-carboxamide] | 330 °C | < 10% | –
O=C(Nc1ccccc1Br)c1cc(=O)c2ccccc2o1 [3j, N-(2-Bromophenyl)-4-oxo-4H-chromene-2-carboxamide] | 195 °C | 46.1 ± 10.2% | –
CCN(CC)Cc1cc(NC(=O)c2cc(=O)c3ccccc3o2)ccc1O [3′c, N-(3-((Diethylamino)methyl)-4-hydroxyphenyl)-4-oxo-4H-chromene-2-carboxamide] | 186 °C | 39.7 ± 4.5% | –
O=C(Nc1cc([N+](=O)[O-])cc([N+](=O)[O-])c1)c1cc(=O)c2ccccc2o1 [3o, N-(3,5-Dinitrophenyl)-4-oxo-4H-chromene-2-carboxamide] | 312 °C | 43.8 ± 24.2% | –
CSc1ccccc1NC(=O)c1cc(=O)c2ccccc2o1 [3r, N-(2-(Methylthio)phenyl)-4-oxo-4H-chromene-2-carboxamide] | 163 °C | 47.8 ± 5.7% | –
O=C(Nc1ccccc1Cl)c1cc(=O)c2ccccc2o1 [3i, N-(2-Chlorophenyl)-4-oxo-4H-chromene-2-carboxamide] | 181 °C | 35.2 ± 14.8% | –
COc1ccccc1NC(=O)c1cc(=O)c2ccccc2o1 [3q, N-(2-Methoxyphenyl)-4-oxo-4H-chromene-2-carboxamide] | 199 °C | 41.3 ± 5.7% | –
O=C(Nc1ccc(F)c(Cl)c1)c1cc(=O)c2ccccc2o1 [3l, N-(3-Chloro-4-fluorophenyl)-4-oxo-4H-chromene-2-carboxamide] | 291 °C | < 10% | –
O=C(Nc1ccccc1F)c1cc(=O)c2ccccc2o1 [3h, N-(2-Fluorophenyl)-4-oxo-4H-chromene-2-carboxamide] | 225 °C | 42.4 ± 10.4% | –
O=C(Nc1ccccc1)c1cc(=O)c2ccccc2o1 [3a, 4-Oxo-N-phenyl-4H-chromene-2-carboxamide] | 229 °C | 21.4 ± 17% | –
CCc1ccc(NC(=O)c2cc(=O)c3ccccc3o2)cc1 [3c, N-(4-Ethylphenyl)-4-oxo-4H-chromene-2-carboxamide] | 179 °C | 43.3 ± 7.2% | –
CCCc1ccc(NC(=O)c2cc(=O)c3ccccc3o2)cc1 [3d, 4-Oxo-N-(4-propylphenyl)-4H-chromene-2-carboxamide] | 173 °C | 55.6 ± 18.3% | –
O=C(NC12CC3CC(CC(C3)C1)C2)c1cc(=O)c2ccccc2o1 [3y, N-((3S,5S,7S)-Adamantan-1-yl)-4-oxo-4H-chromene-2-carboxamide] | 201 °C | 24.4 ± 8.8% | –

Further lines, with some results ahead:

melting point | Structure (SMILES) | inhibition at 50 µM [1] | Biofilm Inhibition (%) ([1]; 50 µM)
260 °C | COc1ccccc1C(=O)Nc1cc(=O)c2ccccc2o1 [6q, 2-Methoxy-N-(4-oxo-4H-chromen-2-yl) benzamide] | 35.2 ± 6.8% | –
224 °C | O=C(Nc1cc(=O)c2ccccc2o1)c1ccc(F)c(Cl)c1 [6l, 3-Chloro-4-fluoro-N-(4-oxo-4H-chromen-2-yl) benzamide] | 67.2 ± 5.2% | –
286 °C | O=C(Nc1cc(=O)c2ccccc2o1)C12CC3CC(CC(C3)C1)C2 [6y, (3R,5R,7R)-N-(4-Oxo-4H-chromen-2-yl) adamantane-1-carboxamide] | 19.5 ± 1.8% | –
198 °C | COc1cc(OC)cc(C(=O)Nc2cc(=O)c3ccccc3o2)c1 [6t, 3,5-Dimethoxy-N-(4-oxo-4H-chromen-2-yl) benzamide] | 43.8 ± 2.4% | –
241 °C | O=C(Nc1cc(=O)c2ccccc2o1)C1CCCCC1 [6x, N-(4-Oxo-4H-chromen-2-yl)cyclohexanecarboxamide] | 48.7 ± 5.3% | –
287 °C | O=C(Nc1cc(=O)c2ccccc2o1)c1ccc(Br)cc1 [6g, 4-Bromo-N-(4-oxo-4H-chromen-2-yl) benzamide] | 56.2 ± 7.9% | –
227 °C | COc1ccc(C(=O)Nc2cc(=O)c3ccccc3o2)cc1 [6p, 4-Methoxy-N-(4-oxo-4H-chromen-2-yl) benzamide] | 39.3 ± 17.1% | –
251 °C | O=C(Nc1cc(=O)c2ccccc2o1)c1ccc(F)cc1 [6e, 4-Fluoro-N-(4-oxo-4H-chromen-2-yl) benzamide] | 65.3 ± 7.6% | –
249 °C | O=C(Nc1cc(=O)c2ccccc2o1)c1ccc(F)cc1Cl [6k, 2-Chloro-4-fluoro-N-(4-oxo-4H-chromen-2-yl) benzamide] | 63.2 ± 9.3% | –
194 °C | O=C(Nc1cc(=O)c2ccccc2o1)c1ccccc1F [6h, 2-Fluoro-N-(4-oxo-4H-chromen-2-yl) benzamide] | 27.8 ± 10.7% | –
323 °C | O=C(Nc1cc(=O)c2ccccc2o1)c1ccc([N+](=O)[O-])cc1 [6m, 4-Nitro-N-(4-oxo-4H-chromen-2-yl) benzamide] | < 10% | inactive
237 °C | CCc1ccc(C(=O)Nc2cc(=O)c3ccccc3o2)cc1 [6c, 4-Ethyl-N-(4-oxo-4H-chromen-2-yl) benzamide] | 63.1 ± 3% | –
287 °C | O=C(Nc1cc(=O)c2ccccc2o1)c1ccc(N2CCOCC2)cc1 [6u, 4-Morpholino-N-(4-oxo-4H-chromen-2-yl) benzamide] | 56.8 ± 10% | –
246 °C | COc1ccc(C(=O)Nc2cc(=O)c3ccccc3o2)cc1OC [6s, 3,4-Dimethoxy-N-(4-oxo-4H-chromen-2-yl) benzamide] | 71.9 ± 13.5% | –
228 °C | O=C(Nc1cc(=O)c2ccccc2o1)c1ccccc1Cl [6i, 2-Chloro-N-(4-oxo-4H-chromen-2-yl) benzamide] | 59.3 ± 3.3% | –
215 to 218 °C | O=C(Nc1cc(=O)c2ccccc2o1)c1ccccc1Br [6j, 2-Bromo-N-(4-oxo-4H-chromen-2-yl) benzamide] | 36.1 ± 4.1% | –
